Values after ≈ are worked out from the molar mass of the structure shown. Active and inactive are the calls of the source. No cut-off for these calls is given here.
Assays:
[1] = Antioxidant activity assessed as DPPH radical scavenging activity at 10 ug/ml measured after 30 mins by UV-vis spectrophotometry relative to control; assay type: functional; conditions: dose 10.0 µg/ml
HT-29 [2] = test: Cytotoxicity against human HT-29 cells assessed as reduction in cell viability measured after 24 hrs by MTT assay; assay type: functional, cell-based
SW-620 [3] = test: Cytotoxicity against human SW620 cells assessed as reduction in cell viability measured after 24 hrs by MTT assay; assay type: functional, cell-based
HT-29 [4] = test: Cytotoxicity against human HT-29 cells assessed as cell viability at 20 uM measured after 24 hrs by MTT assay relative to control; assay type: functional; conditions: read-out: Activity
SW-620 [5] = test: Cytotoxicity against human SW620 cells assessed as cell viability at 20 uM measured after 24 hrs by MTT assay relative to control; assay type: functional; conditions: read-out: Activity
[6] = Cytotoxicity against splenocytes (unknown origin) assessed as reduction in cell viability at 1.25 to 20 uM measured after 24 hrs by MTT assay; assay type: toxicity, cell-based; conditions: splenocyte, dose 1.25-20 µM
[7] = Antioxidant activity assessed as DPPH radical scavenging activity measured after 30 mins by UV-vis spectrophotometry; assay type: functional
[8] = Antioxidant activity assessed as DPPH radical scavenging activity up to 10 ug/ml measured after 30 mins by UV-vis spectrophotometry; assay type: functional; conditions: dose <= 10.0 µg/ml

## CCN(CC)[C@H]1C([N+](=O)[O-])=C2C=CCC[C@]2(C)[C@H]2CC[C@]3(C)[C@@H]([C@H](C)CCCC(C)C)CC[C@H]3[C@H]12
[1]
  Activity: 64.8%

## CC(=O)O[C@@H]1C=C2C([N+](=O)[O-])=C[C@H]3[C@@H]4CC[C@H]([C@H](C)CCCC(C)C)[C@@]4(C)CC[C@@H]3[C@@]2(C)CC1
HT-29 [2]
  Activity: Dose-dependent-effect
HT-29 [2]; HT-29, 24 h
  IC50: 11.5 µM
[1]
  Activity: 86.2%
SW-620 [3]
  Activity: Dose-dependent-effect
SW-620 [3]; SW-620, 24 h
  IC50: 10 µM
HT-29 [4]
  viability at 20 µM: 10.8%
SW-620 [5]
  viability at 20 µM: 15.2%
[6]
  Activity: Non-toxic
[7]
  IC50: 2.78 µg/mL (≈ 5.89 µM)

## CN[C@H]1C([N+](=O)[O-])=C2C=C(Cl)CC[C@]2(C)[C@H]2CC[C@]3(C)[C@@H]([C@H](C)CCCC(C)C)CC[C@H]3[C@H]12
[1]
  Activity: 66.5%

## CC(C)CCC[C@@H](C)[C@H]1CC[C@H]2[C@@H]3[C@@H](N(C)C)C([N+](=O)[O-])=C4C=CCC[C@]4(C)[C@H]3CC[C@]12C
[1]
  Activity: 80.6%
[7]
  IC50: 3.08 µg/mL (≈ 6.74 µM)

## CN[C@H]1C([N+](=O)[O-])=C2C[C@@H](O)CC[C@]2(C)[C@H]2CC[C@]3(C)[C@@H]([C@H](C)CCCC(C)C)CC[C@H]3[C@H]12
[1]
  Activity: 51.2%

## CN[C@H]1C([N+](=O)[O-])=C2C=CCC[C@]2(C)[C@H]2CC[C@]3(C)[C@@H]([C@H](C)CCCC(C)C)CC[C@H]3[C@H]12
[1]
  Activity: 67.9%

## O=C1O[C@H]([C@@H](O)CO)C(O)=C1O
[8]
  Activity: Active
